Patent publication US20220356169A1, “TETRAZINES FOR HIGH CLICK RELEASE SPEED AND YIELD” (priority 2019, published 2022)

Key:
[1] = Cell proliferation assay (MTT); assay type: cell-based; conditions: human, 3 days incubation, mean ± SEM (n = 6), read-out: LS174T cell viability (%); for viability at 72 h, 0.01 μM: 0.01 μM activator; for viability at 72 h, 0.1 μM: 0.1 μM activator; for viability at 72 h, 1 μM: 1 μM activator
Protocol: The human colon carcinoma LS174T cell line was obtained from the American Type Culture Collection and cultured in RPMI-1640 medium supplemented with 2 mM glutamine and 10% heat inactivated fetal calf serum. Twenty-four hours prior to the experiment, the cells were plated in 96-well plates at a 5000 cells/well density. The cells were then incubated with serial dilutions (10 nM-1 μM; n=6) of activators 2.7, 2.8, 2.14, 2.16, 2.17, 2.18 and 2.19 in culture medium for 72h at 37° C. The % cell proliferation was assessed by an MTT assay, in comparison to cells incubated in culture medium without activator. No toxicity was observed when the LS174T cells were incubated with the tested activators (and possible metabolites formed in the presence of serum) for 3-days at a 0.01-1 μM activator concentration.

[2] = Triggered release of Construct-A from TCO trigger, HPLC-MS/PDA
Protocol: At the specified time point, the sample was analyzed by HPLC-MS/PDA, and the release yield was determined from the observed amounts of IEDDA adducts, elimination product, and/or released Construct. In case the release was not complete, the sample was incubated at 37° C. for additional time and analyzed once again.

[3] = test system: 125I-labeled CC49 conjugate; test: Triggered radiolabel release from 125I-labeled CC49-3.6 conjugate, SEC; conditions: 2h in PBS at 37° C.
Protocol: The anti-TAG72 mAb CC49 was conjugated with 3.6 in borate buffer pH 8.0 (containing 1 mM DTPA) using 3 equiv. TCEP. After conjugation, the product was dialyzed extensively (20 kDa MW cut-off membrane) in PBS. The CC49-3.6 the conjugate was radiolabeled using a previously described ^125I-labeled tetrazine [Albu et al., Bioconjug Chem 2016, 27, 207-216] in PBS at 37° C. for 1 h. Due to the higher reactivity of the TCO tag on the outside vs the cleavable TCO trigger on the inside the radiolabeling occurred selectively via the TCO tag. The crude labeling mixture was purified using a desalting cartridge (Zeba spin column, 40 kDa MW cut-off) then the isolated ^125I-labeled CC49 conjugate was incubated with activator 2.7 for 2h in PBS at 37° C., resulting in reaction with the TCO trigger, yielding 88.6% radiolabel release, as confirmed by SEC analysis.

[4] = Second-order rate constant of the IEDDA reaction with TCO 3.2, UV-Vis under second-order conditions in MeCN; assay type: physicochemical; conditions: MeCN at 20° C.; n = 1
Protocol: The second-order rate constant of the IEDDA reaction between model TCO 3.2 and activators 2.7 or 2.8 in MeCN at 20° C. was determined (n=1) by UV-Vis spectrometry under second-order conditions. A cuvette was filled with a solution of activator (3 mL 0.083 mM in MeCN), and equilibrated at 20° C. Next, a solution of TCO 3.2 (10.0 μL, 25 mM in DMSO) was added. The absorption at 540 nm was measured every second in a time course experiment. From the decay of this absorption, the conversion x was calculated. The second-order rate constant k2 was determined from the slope of the curve of a plot of 1/c-1/c0 versus time. The second-order rate constant of the IEDDA reaction between model TCO 3.2 and activators 2.7, 2.8, 2.14, 2.16, or 2.17 in 25% MeCN/PBS at 20° C. was determined (n=5) by stopped-flow UV-Vis spectrometry under pseudo first-order conditions. Tetrazine solutions (0.25 mM in 25% MeCN/PBS) and TCO 3.2 (3.45 mM in 25% MeCN/PBS) were mixed in a volume ratio of 1:1, resulting in a concentration of 0.125 mM and 1.73 mM, respectively. The absorption at 520 nm was measured every 50 ms, and from the decay of this absorption, the pseudo first-order rate constant k1′ was determined by a nonlinear Simplex regression analysis of the data points using BioKine software. The second-order rate constant k2 was calculated: k2=k1′/c,TCO. […]

[5] = Activator stability in PBS at rt (UV decay at 520 nm); assay type: physicochemical; conditions: mean ± SD (n = 3)
Protocol: The assessment of activator stability was performed in PBS at rt. Solutions in DMSO (2.5 mM, 20 μL) were diluted with PBS (3.00 mL), filtered, and incubated at rt. The decrease of the absorption band at 520 nm was monitored using UV spectroscopy.

ADC AVP0458-TCO-MMAE = test: Triggered drug (MMAE) release from ADC in 50% mouse plasma, HPLC-SIM-MS; conditions: for MMAE release from ADC AVP0458-TCO-MMAE, Release (%) / MMAE release level, in words: 50% mouse plasma, 37° C.; for MMAE release level, in words: after 24h incubation
Protocol: In a 1.5 mL vial, the following was combined: 650 μL mouse plasma, 600 μL PBS, 20 μL ADC (1.62 μg/μL in PBS) and 7.5 μL d8-MMAE solution (0.167 μg/μL, internal standard). Next, aliquots of 20 μL were prepared to which 5.2 μL of a tetrazine solution (0.25 mM in 1:1 DMSO/H2O) was added and the solution was incubated at 37° C. At various times, 100 μL of cold MeCN was added to the aliquot and the mixture was vortexed, stored at 4° C. for 30 min. and centrifuged. 20 μL of supernatant was taken and combined with 100 μL of 1% formic acid (aq) solution. This sample was analysed with HPLC-SIM-MS to quantify the ratio of free MMAE and d8-MMAE, which is a measure of the release yield.

[6] = Second-order rate constant of the IEDDA reaction with TCO 3.2, stopped-flow UV-Vis, pseudo first-order conditions; assay type: physicochemical; conditions: 25% MeCN/PBS at 20° C.; mean ± SD (n = 5)
Protocol: The second-order rate constant of the IEDDA reaction between model TCO 3.2 and activators 2.7 or 2.8 in MeCN at 20° C. was determined (n=1) by UV-Vis spectrometry under second-order conditions. A cuvette was filled with a solution of activator (3 mL 0.083 mM in MeCN), and equilibrated at 20° C. Next, a solution of TCO 3.2 (10.0 μL, 25 mM in DMSO) was added. The absorption at 540 nm was measured every second in a time course experiment. From the decay of this absorption, the conversion x was calculated. The second-order rate constant k2 was determined from the slope of the curve of a plot of 1/c-1/c0 versus time. The second-order rate constant of the IEDDA reaction between model TCO 3.2 and activators 2.7, 2.8, 2.14, 2.16, or 2.17 in 25% MeCN/PBS at 20° C. was determined (n=5) by stopped-flow UV-Vis spectrometry under pseudo first-order conditions. Tetrazine solutions (0.25 mM in 25% MeCN/PBS) and TCO 3.2 (3.45 mM in 25% MeCN/PBS) were mixed in a volume ratio of 1:1, resulting in a concentration of 0.125 mM and 1.73 mM, respectively. The absorption at 520 nm was measured every 50 ms, and from the decay of this absorption, the pseudo first-order rate constant k1′ was determined by a nonlinear Simplex regression analysis of the data points using BioKine software. The second-order rate constant k2 was calculated: k2=k1′/c,TCO. As expected for a cycloaddition reaction, the reactivity in PBS is much higher than in MeCN, and importantly the tetrazines of the invention are at least 1 order of magnitude more reactive than the known and high-releasing 3,6-bismethyl-tetrazine (2.17), while giving similar release yields (see Example 7).

[7] = test system: TCO Trigger on tumor-bound ADC; test: In vivo reactivity between ADC AVP0458-TCO-MMAE and tetrazine activators (tumor activation study); set-up: species or system mice; conditions: higher dose (dose 5×: ca. 16.7 μmol/kg)
Protocol: (§1) Female nude Balb/C mice were subcutaneously inoculated ca. 1×10^6 LS174T cells in the hind limb. Biodistribution studies started when the tumors reached 0.1-0.2 cm^3 size. Experiments were carried out to evaluate the reactivity between the TCO Trigger on tumor-bound ADC and activators 2.7, 2.8, 2.14 and 2.16 in LS174T xenografts, as previously performed for other activators [Rossin et al Nature Communications 2018, 9, 1484]. The activators were administered at a 20- to 100-lower dose than that used in previous activation and therapy studies (ca. 0.335 mmol/kg). […] Groups of tumor bearing mice (n=4) were injected with ^125I-labeled ADC (2 mg/kg) followed 48 h later by the activators (dose 1×: ca. 3.3 μmol/kg; dose 5×: ca. 16.7 μmol/kg) and, after 1 h, by [^111In]In-2.20 (ca. 0.33 μmol/kg). One group was injected with the same amount of ^125I-labeled ADC followed only by ^111In-2.20 49 h later. One group was injected only with ^111In-2.20 (non-specific probe binding). All mice were euthanized 23 h post-probe injection and the ^125I and ^111In uptakes in tumors were measured by γ-counting.

LS174T xenografts = test: MMAE measurement in tumors; assay type: in vivo, mice; conditions: 24 h after administration of activator at dose 1×
Protocol: as §1
The concentration of MMAE released in tumors was measured as previously reported [Rossin et al Nature Communications 2018, 9, 1484]. […] For this reason, activator 2.16 was selected for a therapy study in combination with the click-cleavable ADC. At the doses of tc-ADC (4 mg/kg) and 2.16 (dose 10×; 33.5 μmol/kg) used for therapy study, a high level of 339±45 nM free MMAE was detected in tumors.

[8] = 2 min after reaction with activator

SMILES | viability at 72 h, 0.01 μM [1] [%] | viability at 72 h, 0.1 μM [1] [%] | viability at 72 h, 1 μM [1] [%] | half-life at 16.6 µM [5] [min] | MMAE release from ADC AVP0458-TCO-MMAE, Release (%) (ADC AVP0458-TCO-MMAE; [8]) | MMAE release from ADC AVP0458-TCO-MMAE, Release (%) (ADC AVP0458-TCO-MMAE; 10 min) | MMAE release from ADC AVP0458-TCO-MMAE, Release (%) (ADC AVP0458-TCO-MMAE; 1 h) | MMAE release from ADC AVP0458-TCO-MMAE, Release (%) (ADC AVP0458-TCO-MMAE; 5 h) | MMAE release from ADC AVP0458-TCO-MMAE, Release (%) (ADC AVP0458-TCO-MMAE; 24 h, mean ± SD (n = 3)) | MMAE release level, in words (ADC AVP0458-TCO-MMAE) | Calculated k2 values for the reaction between tetrazine activators and TCO 3.2 in PBS [6] [M⁻¹ s⁻¹] | further results
Oc1cccnc1-c1nnc(-c2ncccc2O)nn1 [2.7, 2,2′-(1,2,4,5-Tetrazine-3,6-diyl)bis(pyridin-3-ol)] | 93.6 ± 4.1 | 91.5 ± 4.4 | 98.2 ± 4.6 | 2270 ± 48 | 53.8 | 80.1 | 80.9 | 83.8 | 98.4 ± 0.3 | as high as that obtained with the less reactive 2.17 | 397 ± 4 | Construct release % ([2]; TCO 3.10, doxorubicin, 18 h, 37° C.): 18 h: 100%; Construct release % ([2]; TCO 3.10, released construct doxorubicin, 5 min): 5 min: 52%; Construct release % ([2]; TCO 3.11, released construct doxorubicin, 5 min): 5 min: 100%; Construct release % ([2]; TCO 3.2, dimethylamine, 2 h, incubated at 37° C.): 2 h: 80%; Construct release % ([2]; TCO 3.2, dimethylamine, 20 h, incubated at 37° C.): 20 h: 95%; Construct release % ([2]; TCO 3.2, released construct dimethylamine, 5 min, MeCN/PBS): 5 min: 50%; Construct release % ([2]; TCO 3.23, released construct dimethylamine, 5 min): 5 min: 100%; Construct release % ([2]; TCO 3.32, released construct dimethylamine, 5 min): 5 min: 100%; Construct release % ([2]; TCO 3.7, 3-phenylpropan-1-ol, 24 h, 37° C.): 24 h: 88%; Construct release % ([2]; TCO 3.7, 3-phenylpropan-1-ol, 48 h, 37° C.): 48 h: 95%; Construct release % ([2]; TCO 3.7, released construct 3-phenylpropan-1-ol, 5 min): 5 min: 74%; Construct release % ([2]; TCO 3.8, benzoic acid, 24 h, 37° C.): 24 h: 90%; Construct release % ([2]; TCO 3.8, released construct benzoic acid, 5 min): 5 min: 45%; Construct release % ([2]; TCO 3.9, phenol, 24 h, 37° C.): 24 h: 93%; Construct release % ([2]; TCO 3.9, released construct phenol, 5 min): 5 min: 50%; radiolabel release [3]: 88.6%; Calculated k2 values for the reaction between tetrazine activators and TCO 3.2 in MeCN [4]: 68 M⁻¹ s⁻¹; MMAE release speed, in words (ADC AVP0458-TCO-MMAE; compared with 2.17): faster
O=C(CCCC(=O)Nc1cccnc1-c1nnc(-c2ncccc2NC(=O)CCCC(=O)NCCOCCOCCOCCOCCOCCOCCOCCOCCOCCO)nn1)NCCOCCOCCOCCOCCOCCOCCOCCOCCOCCO [2.14, N^1,N^1′-(2,2′-(1,2,4,5-Tetrazine-3,6-diyl)bis(pyridine-3,2-diyl))bis(N^5-(29-hydroxy-3,6,9,12,15,18,21,24,27-nonaoxanonacosyl)glutaramide)] | 107 ± 3 | 104 ± 2.7 | 97 ± 2.5 | 522 ± 6 | 0.6 | 2.1 | 16.6 | 49.9 | 80.5 ± 0.3 | as high as that obtained with the less reactive 2.17 | 748 ± 20 | on-tumor reaction yield with the ADC (tumor activation) [7]: 94.2±1.8%; free MMAE in tumors, comparison of activators (LS174T xenografts): No difference
